Results: ChEMBL document CHEMBL3352226, “Synthesis of novel derivatives of 4-methylbenzimidazole and evaluation of their biological activities” (Eur J Med Chem, 2014)

Columns and labels:
[1] = Toxicity against human THP1 cells assessed as reduction in cell viability after 48 hrs by trypan blue dye exclusion method; format: cell-based; conditions: thp-1, 48 h
[2] = Antiglycation activity using BSA assessed as inhibition of AGE formation incubated at 37 degC for 9 days by fluorescence assay; format: physicochemical
[3] = Antioxidant activity assessed as DPPH free radical scavenging activity incubated at 37 degC for 30 mins by microtiter plate reader based method; format: physicochemical
[4] = Antioxidant activity assessed as superoxide anion radical scavenging activity by nitroblue tetrazolium method; format: physicochemical
Leishmania major = assay: Antileishmanial activity against Leishmania major JISH118 promastigotes infected in human THP1 cells by Giemsa staining method; format: functional, organism-based, THP-1
[5] = Antiglycation activity using BSA assessed as inhibition of AGE formation incubated at 37 degC for 9 days by fluorescence assay relative to untreated control; format: physicochemical; conditions: cattle, 216 h; note: test concentration or dose not given here
[6] = Leishmania major, JISH118, THP-1, read-out: IC50

Row | Structure (SMILES) | IC50 ([2]; read-out: IC50) | IC50 [3] | IC50 [4] | IC50 (Leishmania major; [6]) | IC50 (Leishmania major; thp-1) | IC50 [2] | inhibition (INH) [5] | Activity [1]
1 | Cc1cccc2nc(-c3ccc(C(=O)N/N=C/c4ccc(F)cc4)cc3)[nH]c12 | – | 90.2 µM | 320 µM | – | Not Active | Not Active | < 50% | Non-toxic
2 | Cc1cccc2nc(-c3ccc(C(=O)N/N=C/c4ccccn4)cc3)[nH]c12 | – | 94.3 µM | 350 µM | – | Not Active | Not Active | < 50% | Non-toxic
3 | Cc1cccc2nc(-c3ccc(C(=O)N/N=C/c4cccnc4)cc3)[nH]c12 | – | 105 µM | 310 µM | – | Not Active | Not Active | < 50% | Non-toxic
4 | Cc1cccc2nc(-c3ccc(C(=O)N/N=C/c4ccncc4)cc3)[nH]c12 | – | 88.4 µM | 340 µM | – | Not Active | Not Active | < 50% | Non-toxic
5 | Cc1cccc2nc(-c3ccc(C(=O)N/N=C/c4ccc(Cl)cc4)cc3)[nH]c12 | – | 120 µM | 360 µM | – | Not Active | Not Active | < 50% | Non-toxic
6 | Cc1cccc(/C=N/NC(=O)c2ccc(-c3nc4cccc(C)c4[nH]3)cc2)c1 | – | 150 µM | 345 µM | – | Not Active | Not Active | < 50% | Non-toxic
7 | Cc1ccccc1/C=N/NC(=O)c1ccc(-c2nc3cccc(C)c3[nH]2)cc1 | – | 158 µM | 340 µM | – | Not Active | Not Active | < 50% | Non-toxic
8 | COc1ccc(/C=N/NC(=O)c2ccc(-c3nc4cccc(C)c4[nH]3)cc2)cc1 | – | 140 µM | 340 µM | – | Not Active | Not Active | < 50% | Non-toxic
9 | COc1cccc(/C=N/NC(=O)c2ccc(-c3nc4cccc(C)c4[nH]3)cc2)c1 | – | 145 µM | 345 µM | – | Not Active | Not Active | < 50% | Non-toxic
10 | COc1ccc(/C=N/NC(=O)c2ccc(-c3nc4cccc(C)c4[nH]3)cc2)cc1OC | – | 120 µM | 330 µM | – | Not Active | Not Active | < 50% | Non-toxic
11 | Cc1cccc2nc(-c3ccc(C(=O)N/N=C/c4ccco4)cc3)[nH]c12 | – | 180 µM | 310 µM | – | Not Active | Not Active | < 50% | Non-toxic
12 | Cc1cccc2nc(-c3ccc(C(=O)N/N=C/c4cccs4)cc3)[nH]c12 | – | 110 µM | 320 µM | – | Not Active | Not Active | < 50% | Non-toxic
13 | COC(=O)c1ccc(/C=N/NC(=O)c2ccc(-c3nc4cccc(C)c4[nH]3)cc2)cc1 | 501 µM | 160 µM | 322 µM | – | Not Active | – | – | Non-toxic
14 | Cc1cccc2nc(-c3ccc(C(=O)N/N=C/c4ccc([N+](=O)[O-])cc4)cc3)[nH]c12 | 450 µM | 138 µM | 312 µM | – | Not Active | – | – | Non-toxic
15 | N=C(N)c1ccc(OCCCCCOc2ccc(C(=N)N)cc2)cc1 [PENTAMIDINE] | – | – | – | 7.02 µM | – | – | – | –

The next lines start with results.

Row | IC50 ([2]; read-out: IC50) | IC50 [3] | IC50 [4] | IC50 (Leishmania major; [6]) | IC50 (Leishmania major; thp-1) | IC50 [2] | inhibition (INH) [5] | Structure (SMILES) | Activity [1]
16 | 220 µM | 12.1 µM | 82 µM | 37.8 µM | – | – | – | Cc1cccc2nc(-c3ccc(C(=O)N/N=C/c4cccc(O)c4O)cc3)[nH]c12 | Non-toxic
17 | 206 µM | 18.5 µM | 86.1 µM | – | Not Active | – | – | Cc1cccc2nc(-c3ccc(C(=O)N/N=C/c4cc(O)ccc4O)cc3)[nH]c12 | Non-toxic
18 | 190 µM | 14.2 µM | 81 µM | – | Not Active | – | – | Cc1cccc2nc(-c3ccc(C(=O)N/N=C/c4ccc(O)c(O)c4)cc3)[nH]c12 | Non-toxic
19 | 195 µM | 17.3 µM | 90 µM | – | Not Active | – | – | Cc1cccc2nc(-c3ccc(C(=O)N/N=C/c4cc(O)cc(O)c4)cc3)[nH]c12 | Non-toxic
20 | 140 µM | 27.4 µM | 92.1 µM | – | Not Active | – | – | Cc1cccc2nc(-c3ccc(C(=O)N/N=C/c4ccc(O)cc4O)cc3)[nH]c12 | Non-toxic
21 | 150 µM | 29 µM | 101 µM | – | Not Active | – | – | Cc1cccc2nc(-c3ccc(C(=O)N/N=C/c4ccc(O)cc4)cc3)[nH]c12 | Non-toxic
22 | 271 µM | 26.2 µM | 104 µM | – | Not Active | – | – | COc1cc(/C=N/NC(=O)c2ccc(-c3nc4cccc(C)c4[nH]3)cc2)ccc1O | Non-toxic
23 | 350 µM | 25.2 µM | 190 µM | – | Not Active | – | – | Cc1cccc2nc(-c3ccc(C(=O)N/N=C/c4ccc(O)c(Br)c4)cc3)[nH]c12 | Non-toxic
24 | 380 µM | 54.1 µM | 209 µM | – | Not Active | – | – | Cc1cccc2nc(-c3ccc(C(=O)N/N=C/c4ccccc4O)cc3)[nH]c12 | Non-toxic
25 | 340 µM | 47.5 µM | 202 µM | – | Not Active | – | – | COc1ccc(/C=N/NC(=O)c2ccc(-c3nc4cccc(C)c4[nH]3)cc2)c(O)c1 | Non-toxic
26 | 280 µM | 60.2 µM | 212 µM | – | Not Active | – | – | Cc1cccc2nc(-c3ccc(C(=O)N/N=C/c4cccc(O)c4)cc3)[nH]c12 | Non-toxic
27 | 405 µM | 40.1 µM | 210 µM | – | Not Active | – | – | COc1ccc(/C=N/NC(=O)c2ccc(-c3nc4cccc(C)c4[nH]3)cc2)c(I)c1O | Non-toxic
28 | 360 µM | 49.1 µM | 222 µM | – | Not Active | – | – | COc1ccc(/C=N/NC(=O)c2ccc(-c3nc4cccc(C)c4[nH]3)cc2)cc1O | Non-toxic
29 | 400 µM | 74.2 µM | 215 µM | – | Not Active | – | – | COc1ccc(O)c(/C=N/NC(=O)c2ccc(-c3nc4cccc(C)c4[nH]3)cc2)c1 | Non-toxic
30 | – | 30.3 µM | 106 µM | – | – | – | – | CCCOC(=O)c1cc(O)c(O)c(O)c1 [PROPYL GALLATE] | –
31 | 294 µM | – | – | – | – | – | – | C[C@@H]1O[C@@H](OC[C@H]2O[C@@H](Oc3c(-c4ccc(O)c(O)c4)oc4cc(O)cc(O)c4c3=O)[C@H](O)[C@@H](O)[C@@H]2O)[C@H](O)[C@H](O)[C@H]1O [RUTIN] | –
